According to PubChem BioAssay AID1918947 (Molecular Pharmacology Branch, DTP, NCI, 2023):

Tested on: A498 complex spheroid viability
Test: Anticancer human tumor A498 cell line growth inhibition;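 note: spheroids exposed to agents for seven days before readout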;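 for viability, T/C: 100% = DMSO vehicle-treated spheroids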
Details: for viability, T/C: stronger effect = lower value
In short: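 Complex spheroids of tumor cells with HUVEC and human MSCs, exposed to iadademstat combined with other agents. Each agent tested in half-log steps from near clinical Cmax (else 10 microM top), DMSO ≤0.25%.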

[1] = curve of first compound, second compound 0.1 µM
[2] = curve of first compound, second compound 0.316 µM
[3] = curve of first compound, second compound 1 µM
[4] = curve of first compound, second compound 3.16 µM
[5] = curve of first compound, second compound 10 µM
[6] = second compound 0.1 µM, first compound 0.00949 µM
[7] = second compound 0.1 µM, first compound 0.03 µM
[8] = second compound 0.1 µM, first compound 0.0949 µM
[9] = second compound 0.1 µM, first compound 0.3 µM
[10] = second compound 0.1 µM, first compound 0.949 µM
[11] = second compound 0.1 µM, first compound 3 µM
[12] = second compound 0.316 µM, first compound 0.00949 µM
[13] = second compound 0.316 µM, first compound 0.03 µM
[14] = second compound 0.316 µM, first compound 0.0949 µM
[15] = second compound 0.316 µM, first compound 0.3 µM
[16] = second compound 0.316 µM, first compound 0.949 µM
[17] = second compound 0.316 µM, first compound 3 µM
[18] = second compound 1 µM, first compound 0.00949 µM
[19] = second compound 1 µM, first compound 0.03 µM
[20] = second compound 1 µM, first compound 0.0949 µM
[21] = second compound 1 µM, first compound 0.3 µM
[22] = second compound 1 µM, first compound 0.949 µM
[23] = second compound 1 µM, first compound 3 µM
[24] = second compound 3.16 µM, first compound 0.00949 µM
[25] = second compound 3.16 µM, first compound 0.03 µM
[26] = second compound 3.16 µM, first compound 0.0949 µM
[27] = second compound 3.16 µM, first compound 0.3 µM
[28] = second compound 3.16 µM, first compound 0.949 µM
[29] = second compound 3.16 µM, first compound 3 µM
[30] = second compound 10 µM, first compound 0.00949 µM
[31] = second compound 10 µM, first compound 0.03 µM
[32] = second compound 10 µM, first compound 0.0949 µM
[33] = second compound 10 µM, first compound 0.3 µM
[34] = second compound 10 µM, first compound 0.949 µM
[35] = second compound 10 µM, first compound 3 µM

Row | Structure (SMILES) | IC50 [1] | IC50 [2] | IC50 [3] | IC50 [4] | IC50 [5] | viability, T/C [6] | viability, T/C [7] | viability, T/C [8] | viability, T/C [9] | viability, T/C [10] | viability, T/C [11] | viability, T/C [12] | viability, T/C [13] | viability, T/C [14] | viability, T/C [15] | viability, T/C [16] | viability, T/C [17] | viability, T/C [18] | viability, T/C [19] | viability, T/C [20] | other results
1 | CCN(c1cc(-c2ccc(CN3CCOCC3)cc2)cc(C(=O)NCc2c(C)cc(C)[nH]c2=O)c1C)C1CCOCC1 + NC1CC1c1ccc(-c2cccc(O)c2)cc1 | > 3000 nM | > 3000 nM | > 3000 nM | > 3000 nM | > 3000 nM | 98.8% | 112% | 98.9% | 95.1% | 103% | 96.7% | 108% | 106% | 108% | 107% | 101% | 104% | 100% | 107% | 97.6% | viability, T/C [21]: 94.7%; viability, T/C [22]: 98.4%; viability, T/C [23]: 95.1%; viability, T/C [24]: 94%; viability, T/C [25]: 92.6%; viability, T/C [26]: 89%; viability, T/C [27]: 90.1%; viability, T/C [28]: 93.8%; viability, T/C [29]: 100%; viability, T/C [30]: 96.6%; viability, T/C [31]: 97.2%; viability, T/C [32]: 94.9%; viability, T/C [33]: 93.1%; viability, T/C [34]: 90.6%; viability, T/C [35]: 91%
2 | NC1CC1c1ccc(-c2cccc(O)c2)cc1 (stereo not drawn) |  |  |  |  |  |  |  |  |  |  |  |  |  |  |  |  |  |  |  |  | viability, T/C (compound 0.316 µM): 104% [middle of 25 runs]; viability, T/C (compound 10 µM): 94.1% [middle of 25 runs]; IC50 (compound alone, run of 12/07/2021): > 10000 nM
3 | Nc1ccccc1NC(=O)c1ccc(CNC(=O)OCc2cccnc2)cc1 + NC1CCC(NC2CC2c2ccccc2)CC1 | 203 nM | 222 nM | 215 nM | 177 nM | 214 nM | 80.6% | 76% | 65.8% | 42.1% | 15.4% | 1.76% | 86.7% | 83.8% | 66.4% | 44.6% | 17% | 1.4% | 76.8% | 79.6% | 68.4% | viability, T/C [21]: 40.9%; viability, T/C [22]: 17.2%; viability, T/C [23]: 1.13%; viability, T/C [24]: 73.6%; viability, T/C [25]: 67.3%; viability, T/C [26]: 59.8%; viability, T/C [27]: 42.7%; viability, T/C [28]: 16%; viability, T/C [29]: 0.8%; viability, T/C [30]: 62%; viability, T/C [31]: 59.3%; viability, T/C [32]: 57.4%; viability, T/C [33]: 47%; viability, T/C [34]: 16.3%; viability, T/C [35]: 0.91%
